Experimental data reported in patent US20220411449A1, “Method for Preparing Heteroleptic Triarylbismuthanes and Compounds Produced by the Same” (UNIVERSITY OF HAWAII, priority 2019, published 2022).
≈ marks a conversion by molar mass, not a printed value.

What was measured:
[1] = tested on: Staphylococcus aureus; test: Disk diffusion zone of inhibition; conditions: for Antibacterial activity against S. aureus, in words: disk diffusion, at the concentration tested; for Zone of Inhibition, S. aureus: disks with 1-5 μg compound/disk, positive control 5 μg Novobiocin, 22 hours at 37° C., LB agar
[2] = tested on: Escherichia coli; test: Disk diffusion zone of inhibition; conditions: for Antibacterial activity against E. coli, in words: disk diffusion, at the concentration tested; for Zone of Inhibition, E. coli: disks with 1-5 μg compound/disk, positive control 30 μg Tetracycline, 22 hours at 37° C., LB agar
[3] = tested on: E. coli; test: Minimum Inhibitory Concentration (MIC) determination, 96-well plates, OD600; conditions: for MIC, E. coli: 24 hours at 37° C., compounds tested at 0-40 μg/mL in duplicate, Kanamycin 0-4 μg/mL
[4] = tested on: S. aureus; test: as above; conditions: for MIC, S. aureus: 24 hours at 37° C., compounds tested at 0-5 μg/mL in duplicate, Kanamycin 0-4 μg/mL
[5] = tested on: Vesicular Stomatitis Virus (Indiana strain); assay type: cell-based

| SMILES | Antibacterial activity against S. aureus, in words [1] | Zone of Inhibition, S. aureus [1] | Antibacterial activity against E. coli, in words [2] | Zone of Inhibition, E. coli [2] [cm] | zone of inhibition at 5 µg/disc ([1]; Staphylococcus aureus, 22 h, read-out: Zone of Inhibition, S. aureus) [mm] | MIC, E. coli [3] | MIC, S. aureus [4] | % Plaque Reduction [5] [%] | zone of inhibition at 30 µg/disc ([2]; Escherichia coli, 22 h, read-out: Zone of Inhibition, E. coli) [mm] | MIC ([3]; Escherichia coli, 24 h, read-out: MIC, E. coli) [µg/mL] | MIC ([4]; Staphylococcus aureus, 24 h, read-out: MIC, S. aureus) [µg/mL] |
| --- | --- | --- | --- | --- | --- | --- | --- | --- | --- | --- | --- |
| COc1cc[c]([Bi]([c]2ccccc2)[c]2ccccc2)cc1 [Compound 3] | showed antibacterial activity against S. aureus | 1 cm | little activity against E. coli | 0 | – | – | – | – | – | – | – |
| COc1cc[c]([Bi]([c]2ccc(C#N)cc2)[c]2ccc(C#N)cc2)cc1 [Compound 9] | showed antibacterial activity against S. aureus | 1 cm | little activity against E. coli | 0 | – | – | – | – | – | – | – |
| CO[C@@H]1[C@@H](OC(N)=O)[C@@H](O)[C@H](Oc2ccc3c(O)c(NC(=O)c4ccc(O)c(CC=C(C)C)c4)c(=O)oc3c2C)OC1(C)C [Novobiocin, reference compound] | – | – | – | – | 20 to 25 | – | – | – | – | – | – |
| COc1cc[c]([Bi]([c]2c(C)cc(C)cc2C)[c]2c(C)cc(C)cc2C)cc1 [Compound 2] | showed antibacterial activity against S. aureus | 1 cm | little activity against E. coli | 0 | – | – | – | – | – | – | – |
| Cc1cc(C)[c]([Bi]([c]2ccccc2)[c]2ccccc2)c(C)c1 [Compound 5] | most effective against S. aureus | 1.6 cm | weaker antimicrobial activity against E. coli | 0 | – | 40 µg/mL | 0.625 µg/mL | – | – | – | – |
| Cc1cc[c]([Bi]([c]2ccc(C#N)cc2)[c]2ccc(C#N)cc2)cc1 [Compound 10] | showed antibacterial activity against S. aureus | 0.9 cm | little activity against E. coli | 0 | – | – | – | – | – | – | – |
| Cc1cc[c]([Bi]([O]S(=O)(=O)c2ccc(C)cc2)[c]2ccc(C)cc2)cc1 [Compound 19] | most effective against S. aureus | 1.8 cm | weaker antimicrobial activity against E. coli | 0.8 | – | No inhibition | 2.5 µg/mL | 76.6 | – | – | – |
| Cc1cc[c]([Bi]([O]S(=O)(=O)c2ccc(C)cc2)[O]S(=O)(=O)c2ccc(C)cc2)cc1 [Compound 22] | – | – | – | 0 | – | – | – | – | – | – | – |
| [I][Bi]([c]1ccccc1)[c]1ccccc1 [Compound 18] | most effective against S. aureus | 2.2 cm | weaker antimicrobial activity against E. coli | 1.3 | – | 10 µg/mL | 0.625 µg/mL | 99.95 | – | – | – |
| Cc1cc(C)[c]([Bi]([c]2ccccc2)[c]2c(C)cc(C)cc2C)c(C)c1 [Compound 8] | showed antibacterial activity against S. aureus | 1 cm | little activity against E. coli | 0 | – | – | – | – | – | – | – |
| CN(C)[C@@H]1C(O)=C(C(N)=O)C(=O)[C@@]2(O)C(O)=C3C(=O)c4c(O)cccc4[C@@](C)(O)[C@H]3C[C@@H]12 [Tetracycline, reference compound] | – | – | – | – | – | – | – | – | 18 to 25 | – | – |
| COC(OC)c1cc[c]([Bi]([c]2ccccc2)[c]2ccccc2)cc1 [Compound 1] | – | 0 cm | – | 0 | – | – | – | – | – | – | – |
| Cc1cc[c]([Bi]([O]S(=O)(=O)c2ccc(C)cc2)[O]S(=O)(=O)c2ccc(C)cc2)cc1 [Compound 21] | most effective against S. aureus | 1.5 cm | weaker antimicrobial activity against E. coli | 1 | – | 40 µg/mL | 1.25 μg/mL L | 38.7 | – | – | – |
| N#Cc1cc[c]([Bi]([c]2ccccc2)[c]2ccccc2)cc1 [Compound 6] | – | 0 cm | – | 0 | – | – | – | – | – | – | – |
| COc1cc[c]([Bi]([c]2ccccc2)[c]2ccc(OC)cc2)cc1 [Compound 7] | showed antibacterial activity against S. aureus | 1.1 cm | little activity against E. coli | 0 | – | – | – | – | – | – | – |
| Cc1cc(C)[c]([Bi]([I])[c]2c(C)cc(C)cc2C)c(C)c1 [Compound 23] | most effective against S. aureus | 0.9-1.9 cm | weaker antimicrobial activity against E. coli | 0.6 | – | – | – | – | – | – | – |
| Cc1cc[c]([Bi]([c]2c(C)cc(C)cc2C)[c]2c(C)cc(C)cc2C)cc1 [Compound 11] | showed antibacterial activity against S. aureus | 0.8 cm | little activity against E. coli | 0 | – | – | – | – | – | – | – |
| NC[C@H]1O[C@H](O[C@H]2[C@H](O)[C@@H](O[C@H]3O[C@H](CO)[C@@H](O)[C@H](N)[C@H]3O)[C@H](N)C[C@@H]2N)[C@H](O)[C@@H](O)[C@@H]1O [Kanamycin, reference compound] | – | – | – | – | – | – | – | – | – | 0.0625 (≈ 0.129 µM) | 0.0625 (≈ 0.129 µM) |
| Cc1cc(C)[c]([Bi]([c]2ccc(C#N)cc2)[c]2c(C)cc(C)cc2C)c(C)c1 [Compound 13] | showed antibacterial activity against S. aureus | 0.9 cm | little activity against E. coli | 0 | – | – | – | – | – | – | – |
| Cc1ccc(S(=O)(=O)[O][Bi]([O]S(=O)(=O)c2ccc(C)cc2)[c]2ccccc2)cc1 [Compound 16] | – | 1.8 cm | – | 1 | – | 20 µg/mL | 0.625 µg/mL | 81.8 | – | – | – |
| COC(=O)c1cc[c]([Bi]([c]2ccccc2)[c]2ccccc2)cc1 [Compound 4] | – | 0 cm | – | 0 | – | – | – | – | – | – | – |
| Cc1ccc(S(=O)(=O)[O][Bi]([c]2ccccc2)[c]2ccccc2)cc1 [Compound 14] | most effective against S. aureus | 2.1 cm | weaker antimicrobial activity against E. coli | 1.3 | – | 10 µg/mL | 0.625 µg/mL | 29.7 | – | – | – |
| COc1cc[c]([Bi]([c]2ccc(C)cc2)[c]2ccc(OC)cc2)cc1 [Compound 12] | showed antibacterial activity against S. aureus | 1 cm | little activity against E. coli | 0 | – | – | – | – | – | – | – |
